Data published in patent publication US4602035A, “Antidepressant (3-aryl-2,3-dihydrobenzofuran-3-yl)alkylamines” (Hoechst-Roussel Pharmaceuticals Inc., priority 1983, dated 1986).
Where a name gives a salt, the structure may show the parent alone. Read-outs that look alike come from different tables or passages of the source.

Key:
[1] = test system: 2-phenyl-1,4-benzoquinone-induced writhing in mice; experiment: 2-phenyl-1,4-benzoquinone-induced writhing (PQW) test in mice (analgesic activity); assay type: in vivo; conditions: for PQW Percent writhing inhib.: s.c.; for inhibition in vivo at 10 mg/kg / ED50: Mus musculus, sc; for inhibition in vivo at 10 mg/kg: 10 mg/kg s.c., read-out: PQW Percent writhing inhib. @ 10 mg/kg s.c.
Description: Compounds I of the present invention are also useful as analgesic agents due to their ability to alleviate pain in mammals. […] Exptl. Biol. Med., 95, 729 (1957)].

[2] = test system: Tetrabenazine induced ptosis in mice; experiment: Prevention of tetrabenazine (TBZ) induced ptosis in mice (antidepressant activity); assay type: in vivo; conditions: Mus musculus; for inhibition in vivo at 20 mg/kg: 20 mg/kg i.p., read-out: TBZ Percent ptosis inhit. @ 20 mg/kg i.p.
Experimental: The method used is as follows.
Male mice weighing 20 to 30 grams are used in test groups of five subjects. All compounds are dissolved, or suspended with one drop of a non-ionic surfactant in distilled water and administered in volumes of 10 ml/kg of body weight. Tetrabenazine (TBZ) solution is made from methanesulfonate salt and the concentration is adjusted to enable the administration of 40 mg/kg of base by intraperitoneal injection (i.p.).
If the test compound is administered intraperitoneally, TBZ is injected 30 minutes after administration. If the test compound is administered orally (p.o.), TBZ is injected 60 minutes after the administration. A control group receives solvent and TBZ by the same route and at the same intervals as the drug groups.
The total score for each group of five will therefore be from 0 to 20 and these scores are used as indications of drug activity.
The vehicle-control group score is used as a determinate of the validity of each test.
A linear-regression analysis is used to estimate ED50 values.

[3] = footnote a: determined by oral administration, mice, TBZ 40 mg/kg i.p., read-out: TBZ ED50 i.p.

Structure (SMILES)	inhibition in vivo at 20 mg/kg ([2]; ip, mice)	inhibition in vivo at 10 mg/kg [1]	also measured
CN(C)CCCC1(c2ccccc2)COc2ccccc21.O=C(O)C(=O)O (stereo not shown) [3-(3-Phenyl-2,3-dihydrobenzofuran-3-yl)-N,N-dimethylpropylamine oxalate]	37%	–	PQW Percent writhing inhib. ([1]; footnote c: at 25 mg/kg): 59%
Cc1ccccc1C1(CCN(C)C)COc2ccccc21 (stereo not shown) [3-[3-(2-Tolyl)-2,3-dihydrobenzofuran-3-yl]-N,N-dimethylethylamine fumarate]	10%	34%	–
Cc1ccc(C2(CCN(C)C)COc3ccccc32)cc1 (stereo not shown) [3-[3-(4-Tolyl)-2,3-dihydrobenzofuran-3-yl]-N,N-dimethylethylamine fumarate]	20%	61%	–
CNCCCC1(c2ccccc2)COc2ccccc21.Cl (stereo not shown) [3-(3-Phenyl-2,3-dihydrobenzofuran-3-yl)-N-methylpropylamine hydrochloride]	–	54%	ED50 ([2]; ip, mice, TBZ 40 mg/kg i.p., read-out: TBZ ED50 i.p.): 13.7 mg/kg
CN(C)CCCC1(c2ccccc2)COc2ccc(Cl)cc21.O=C(O)C(=O)O (stereo not shown) [3-(3-Phenyl-5-chloro-2,3-dihydrobenzofuran-3-yl)-N,N-dimethylpropylamine oxalate]	15%	–	PQW Percent writhing inhib. ([1]; footnote b: at 20 mg/kg): 38%
CN(C)CCCN1c2ccccc2CCc2ccccc21 [imipramine, reference compound]	–	–	ED50 ([2]; po, read-out: antidepressant ED50): 5.5 mg/kg
CN(CCCC1(c2ccccc2)COc2ccccc21)C(=O)OCC(Cl)(Cl)Cl (stereo not shown) [3-(3-Phenyl-2,3-dihydrobenzofuran-3-yl)-N-(2,2,2-trichloroethoxycarbonyl)-N-methylpropylamine]	–	32%	–
CN(CCC1(c2ccccc2)COc2ccccc21)CC1CC1.O=C(O)/C=C/C(=O)O (stereo not shown) [2-(3-Phenyl-2,3-dihydrobenzofuran-3-yl)-N-cyclopropylmethyl-N-methylethylamine fumarate]	22%	–	ED50 [1]: 6.27 mg/kg
CN(CCCC1(c2ccccc2)COc2ccccc21)CCc1ccccc1 (stereo not shown) [3-(3-Phenyl-2,3-dihydrobenzofuran-3-yl)-N-methyl-N-phenethylpropylamine oxalate]	0%	46%	–
CNCCC1(c2ccccc2)COc2ccccc21.Cl (stereo not shown) [2-(3-Phenyl-2,3-dihydrobenzofuran-3-yl)-N-methylethylamine hydrochloride]	–	53%	ED50 [2, 3]: 4.99 mg/kg
CN(CCC1(c2ccccc2)COc2ccccc21)C(=O)OCC(Cl)(Cl)Cl (stereo not shown) [2-(3-Phenyl-2,3-dihydrobenzofuran-3-yl)-N-(2,2,2-trichloroethoxycarbonyl)-N-methylethylamine]	6%	–	–
CN(CCCC1(c2ccccc2)COc2ccccc21)CC1CC1 (stereo not shown) [3-(3-Phenyl-2,3-dihydrobenzofuran-3-yl)-N-cyclopropylmethyl-N-methylpropylamine oxalate]	10%	48%	–
CN(C#N)CCC1(c2ccccc2)COc2ccccc21 (stereo not shown) [2-(3-Phenyl-2,3-dihydrobenzofuran-3-yl)-N-cyano-N-methylethylamine]	20%	59%	–
CN(CCC#N)CCC1(c2ccccc2)COc2ccccc21 (stereo not shown) [2-(3-Phenyl-2,3-dihydrobenzofuran-3-yl)-N-(2-cyanoethyl)-N-methylethylamineoxalate]	21%	–	PQW Percent writhing inhib. ([1]; footnote b: at 20 mg/kg): 33%
CN(C)CCC1(c2ccccc2)COc2ccccc21.O=C(O)C(=O)O (stereo not shown) [2-(3-Phenyl-2,3-dihydrobenzofuran-3-yl)-N,N-dimethylethylamine oxalate]	–	–	PQW Percent writhing inhib. ([1]; footnote b: at 20 mg/kg): 49%; ED50 [2, 3]: 3.03 mg/kg
CN(C)CCC1(c2ccccc2F)COc2ccccc21 (stereo not shown) [3-[3-(2-Fluorophenyl)-2,3-dihydrobenzofuran-3-yl]-N,N--dimethylethylamine fumarate]	60%	35%	–
CN(CCc1ccccc1)CCC1(c2ccccc2)COc2ccccc21.O=C(O)/C=C/C(=O)O (stereo not shown) [2-(3-Phenyl-2,3-dihydrobenzofuran-3-yl)-N-methyl-N-phenethylethylamine fumarate]	17%	–	ED50 [1]: 20 mg/kg
